Experimental data from PMC7555330, “In Silico Identification and Biological Evaluation of Antioxidant Food Components Endowed with Human Carbonic Anhydrase IX and XII Inhibition” (Antioxidants, 2020).
pKi: −log10 of the molar value. Where two headings read alike, the source gives them in different places.

What was measured:
[1] = molecular target: T1, hCA IX (Homo sapiens, UniProt Q16790); settings: literature statement; cited from earlier work
T1 construct: made in house

[2] = molecular target: T2, hCA XII (Homo sapiens, UniProt O43570); settings: literature statement; cited from earlier work
T2 construct: made in house
T2 sequence (O43570 25-354): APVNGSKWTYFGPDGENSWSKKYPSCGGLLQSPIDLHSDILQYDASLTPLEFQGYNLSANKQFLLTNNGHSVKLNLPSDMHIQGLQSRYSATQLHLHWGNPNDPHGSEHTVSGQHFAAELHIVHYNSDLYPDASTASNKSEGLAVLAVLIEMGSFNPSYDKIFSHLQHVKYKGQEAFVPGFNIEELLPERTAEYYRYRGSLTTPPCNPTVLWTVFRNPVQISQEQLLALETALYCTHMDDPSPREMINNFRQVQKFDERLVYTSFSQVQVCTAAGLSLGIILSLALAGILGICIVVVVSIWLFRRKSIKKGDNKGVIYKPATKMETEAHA

[3] = molecular target: T3, hCA I (Homo sapiens, UniProt P00915); assay: stopped-flow CO2 hydrase assay, hCA I; format: biochemical
T3 construct: made in house
T3 sequence (P00915 whole entry): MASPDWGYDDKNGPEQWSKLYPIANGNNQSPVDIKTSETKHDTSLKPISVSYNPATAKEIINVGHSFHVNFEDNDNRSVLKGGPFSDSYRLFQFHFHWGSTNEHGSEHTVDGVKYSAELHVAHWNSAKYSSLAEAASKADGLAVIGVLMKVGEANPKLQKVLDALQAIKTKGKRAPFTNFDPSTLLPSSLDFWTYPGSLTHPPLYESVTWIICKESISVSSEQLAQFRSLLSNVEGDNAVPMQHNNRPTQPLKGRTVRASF
Description: (§1) The CA-catalyzed CO2 hydration activity of the compounds reported was assayed by means of the Applied Photophysics stopped-flow instrument. Phenol red was used as a pH indicator at a concentration of 0.2 mM, the instrument was set at working maximum absorbance maximum of 557 nm, the solutions were buffered at pH 7.5 with 20 mM HEPES, and 20 mM Na2SO4 was added for keeping constant the ionic strength, to follow the initial rates of the enzyme-catalyzed CO2 hydration reaction for a period of 10–100 s. The CO2 concentrations for the determination of the kinetic parameters and inhibition constants ranged from 1.7 to 17 mM.
(§2) The uncatalyzed rates were determined in the same experimental manner and subtracted from the total observed values. Stock solutions of the potential inhibitor (0.1 mM) were prepared by using distilled deionized water, and the dilutions with the assay buffer were prepared up to 0.01 nM. The solutions containing the inhibitor and the enzyme were preincubated for 30 min at r.t. prior to performing the assay, in order to form the E−I adduct. The inhibition constants (KIS) were obtained by the nonlinear least squares methods using PRISM 3 and the Cheng−Prusoff equation, as reported earlier, and represent the mean from three different experimental determinations. All CA isoforms herein reported were recombinant and obtained in-house.

[4] = molecular target: T4, hCA II (Homo sapiens, UniProt P00918); assay: stopped-flow CO2 hydrase assay, hCA II; format: biochemical
T4 construct: made in house
Description: as §1, §2

[5] = MTT cell viability assay; format: cell-based; settings: human, Caco-2 cells; Caco-2, 10 µM, 72 h after treatment, percentage of control
Description: The human colorectal cancer cells Caco-2 were maintained in Dulbecco’s Modified Eagle Medium (DMEM, Sigma-Aldrich, St. Louis, MO, USA) integrated with 10% of FBS (Fetal Bovine Serum, Sigma-Aldrich, St. Louis, MO, USA) and 1% P/S (Penicillin, Streptomycin, Sigma-Aldrich, St. Louis, MO, USA). Cells’ culture conditions were 5% CO2 incubator at 37 °C. Cell viability was assessed through an MTT assay: 1 × 10^4 cells/well were plated in a 96-well microplate and, two hours later, treated with 6, 12, and 14 (the latter dissolved in DMSO) at 10 µM concentration. After 24, 48, and 72 h, 20 µL of 3-(4,5-dimethylthiazol-2-yl)-2,5 diphenyl tetrazolium (MTT detection reagent, Sigma-Aldrich, St. Louis, MO, USA) was added on the plate at the final concentration of […], and incubated for two more hours. Culture agent was removed and 200 µL of isopropanol (0.04 M HCl) were added to solubilizeformazan crystals. Absorbance was measured at 560 nm by the Victor 3 reader.

[6] = molecular target: T2, hCA XII; assay: stopped-flow CO2 hydrase assay, hCA XII; format: biochemical; settings: for selectivity index (SI; KI hCA IX/KI hCA XII): hCA XII over hCA IX
Description: as §1, §2

[7] = molecular target: T1, hCA IX; assay: stopped-flow CO2 hydrase assay, hCA IX; format: biochemical; settings: mean of three assays, errors ±5–10%
Description: as §1, §2

[8] = molecular target: T4, hCA II; set-up: method as in PMID 26498393; settings: stopped-flow CO2 hydrase assay; cited from earlier work
[9] = molecular target: T3, hCA I; set-up: method as in PMID 26498393; settings: stopped-flow CO2 hydrase assay; cited from earlier work

In the case of `COc1ccccc1O` [Guaiacol], the “Ki hCA IX” value [1] is given as “low micromolar range” and the “Ki hCA XII” value [2] is given as “low micromolar range”.
In the case of `COc1cc([C@@H]2Oc3c(OC)cc(/C=C/CO)cc3[C@H]2CO)ccc1O` [compound 6, (-)-dehydrodiconiferyl alcohol], the pKi ([3]; stopped-flow CO2 hydrase assay, mean of three assays, errors ±5–10%, read-out: KI hCA I) was less than 4.00, the pKi ([4]; stopped-flow CO2 hydrase assay, mean of three assays, errors ±5–10%, read-out: KI hCA II) was less than 4.00 and the viability at 72 h, 10 µM [5] was roughly 70%. For the same compound, the “selectivity index (SI; KI hCA IX/KI hCA XII)” value [6] was 27.0 fold, the pKi ([6]; stopped-flow CO2 hydrase assay, mean of three assays, errors ±5–10%, read-out: KI hCA XII) was 7.02 and the pKi [7] was 5.59.
For `O=C(/C=C/c1ccc(O)c2c1[C@H](C(=O)O)[C@@H](c1ccc(O)c(O)c1)O2)O[C@H](Cc1ccc(O)c(O)c1)C(=O)O` [compound 12, lithospermic acid], the pKi [8] is given as less than 4.00, the viability at 72 h, 10 µM [5] is given as roughly 50% and the pKi [9] is given as less than 4.00.
`COc1cc(/C=C/CO)cc(OC)c1O[C@@H]1O[C@H](CO)[C@@H](O)[C@H](O)[C@H]1O` [compound 14, syringin] showed a pKi [3] of less than 4.00, a pKi [4] of less than 4.00 and a viability at 72 h, 10 µM [5] of roughly 50%. The pKi [6] was 7.04, the “selectivity index (SI; KI hCA IX/KI hCA XII)” value [6] was 3.5 fold and the pKi [7] was 6.49.
